Measured values published in patent publication US10150776B2, “Harringtonines salts in the crystalline state and their use for the purification of the corresponding drug substance” (priority 2013, dated 2018).
Where two headings read alike, the source gives them in different places.

Tests used:
cancer = test system: cancer; design: key: cytotoxic: CYTOTOXICITY is toxicity to tumor cells in culture; anticancer: ANTINEOPLASTIC or ANTICANCER iare the reserved terms for reportied clinical trials data; conditions: in cancer area; terms defined in table footnote; cited from earlier work
[1] = Solubility determination in water, semi-quantitative; assay type: physicochemical
Experimental: Solubility in water at 25° C. was measured semi-quantitatively at a threshold of 5 g per 100 mL. All the homoharringtonine salts described in the below examples, unless otherwise stated, are soluble at this threshold. Homoharringtonine base itself is soluble at a threshold lower than 0.1 g per mL

Row | solubility ([1]; 25 °C) [mg/mL] | solubility ([1]; 25° C., semi-quantitative, read-out: Solubility in water (threshold)) [mg/mL] | Compound | Activity (cancer)
1 | – | – | COC(=O)CC(O)(CCCCC(C)(C)O)C(=O)OC1C(OC)=CC23CCCN2CCc2cc4c(cc2C13)OCO4 (stereo not drawn) [Example 5e, bishomoharringtonine] | none
2 | – | – | neoharringtonine [Example 5g] | cytotoxic
3 | – | – | COC(=O)CC(O)(CC(C)(C)O)C(=O)OC1C(OC)=CC23CCCN2CCc2cc4c(cc2C13)OCO4 (stereo not drawn) [Example 5c, norharringtonine] | none
4 | – | – | COC(=O)C[C@](O)(CCC(C)(C)O)C(=O)O[C@@H]1C(OC)=C[C@]23CCCN2CCc2cc4c(cc2[C@H]13)OCO4 [Example 5a, harringtonine] | anticancer
5 | > 60 | – | COC(=O)C[C@@](O)(CCCC(C)(C)O)C(=O)O[C@@H]1C(OC)=C[C@]23CCCN2CCc2cc4c(cc2[C@H]13)OCO4.O=C(O)C[C@H](O)C(=O)O [Example 3, HOMOHARRINGTONINE HYDROGEN (2S)-MALATE] | –
6 | – | – | COC(=O)C[C@](O)(CCC(C)C)C(=O)O[C@@H]1C(OC)=C[C@]23CCCN2CCc2cc4c(cc2[C@H]13)OCO4 [Example 5d, deoxyharringtonine] | anticancer
7 | – | < 100 | COC(=O)C[C@](O)(CCCC(C)(C)O)C(=O)O[C@@H]1C(OC)=C[C@]23CCCN2CCc2cc4c(cc2[C@H]13)OCO4 [Homoharringtonine base, homoharringtonine] | anticancer
8 | – | – | COC(=O)[C@@H](O)[C@](O)(CCC(C)C)C(=O)O[C@@H]1C(OC)=C[C@]23CCCN2CCc2cc4c(cc2[C@H]13)OCO4 [Example 5f, isoharringtonine] | none
